Read-outs that look alike come from different tables or passages of the source. d = 2'-deoxy (DNA); r = 2'-OH (RNA)
Tests used:
[1] = system: HT22 cells; assay: HT22 cell survival (MTT) after toxic glutamate exposure; format: cell-based; settings: HT22 cells preconditioned (70 μM 22P19 for 24 or 48 h, or siRNA transfection), then 5 mM or 10 mM glutamate for 18 hours
Method: FIG. 6: Inhibition of endogenous GADD34L protects cells against oxidative toxicity. The bar graphs show percent survival of HT22 cells following exposure to toxic amounts of glutamate. HT22 cells were treated with 70 μM 22P19 for 24 or 48 h (top panel), or left untransfected (NTx), mock transfected, transfected with GADD34L siRNA, or transfected with control or CD2 siRNA (bottom panel), and then exposed to the indicated concentrations of glutamate for 18 hours.
In order to determine whether this preconditioning is protective against subsequent cell stress, cell survival rates of HT22 cells following toxic glutamate exposure were measured, where those HT22 cells had been preconditioned by 22P19- or RNAi-mediated inhibition of GADD34L (see FIG. 6).
For this assay, HT22 cells were either treated with 70 μM 22P19 for 24 or 48 h, or transfected with GADD34L siRNA or control CD2 siRNA, and then exposed to 0 mM, 5 mM, or 10 mM glutamate for 18 hours.

[2] = system: CHOP::GFP reporter; assay: CHOP::GFP reporter expression by FACS in CHOP::GFP CHO cells; format: cell-based, Chinese Hamster
[3] = system: CHOP protein and phosphorylated eIF2α in CHO cells; format: cell-based, Chinese Hamster
[4] = parental CHO cells, 1.75 μg/mL tunicamycin or 50 μM arsenite

Substance: GADD34L siRNA: complementary double stranded RNA oligonucleotides (SEQ ID NO: 9 and 10) targeting GADD34L mRNA, purchased from Dharmacon (chain 1 GGGAUGGAUGCAGGUUCCATT; chain 2 UGGAACCUGCAUCCAUCCCTT; sugars from the 5' end r19 d2, backbone not given here)
- cell survival following glutamate treatment [1]: substantially improved cell survival
- CHOP::GFP expression in cells not subject to stress ([2]; CHO CHOP::GFP cells harvested 16, 24 or 44 hours after transfection): activates CHOP::GFP expression

Substance: arsenite
- CHOP::GFP reporter expression [2]: substantially activated
- CHOP protein level [3]: strong induction of CHOP protein
- phosphorylated eIF2α level [3]: increase in phosphorylated eIF2α levels

Substance: tunicamycin
- CHOP::GFP reporter expression ([2]; parental CHO cells, 8 hours, 1.75 μg/mL tunicamycin or 50 μM arsenite): substantially activated
- CHOP protein level [3, 4]: strong induction of CHOP protein
- phosphorylated eIF2α level [3, 4]: increase in phosphorylated eIF2α levels

From patent US7097996B2, “Methods of screening test compounds using GADD34L, an eIF2α-specific phosphatase subunit” (New York University, priority 2002, dated 2006)
